The values below come from patent US20260035364A1, “BICYCLIC TETRAHYDROTHIAZEPINE DERIVATIVES” (Hoffmann-La Roche Inc., priority 2022, published 2026).

One experiment deals with primary human T-cells. Nature of the experiment: IL2 secretion measurements in CD3-stimulated T-cells. The settings on record: CD3 condition; for Emax / EC50: Homo sapiens, T-cell, 24 h; for Emax: read-out: Emax IL2 (% activation); for EC50: IL2 secretion after 24 hours, read-out: Tcell IL2 CD3 EC50. In kind it is cell-based. The gist of the method: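 Expanded primary human T-cells (100k/well) were stimulated on CD3 antibody-coated or PBS-coated plates with compounds in 5–6 point dose response from 20 or 10 μM top final (dilution factor 3.333, 0.2% DMSO final). IL2 in 24 h supernatants was measured by ProQuantum immunoassay or ELISA, normalized to DMSO (0%) and 20 μM reference compound A1 (100%) to fit EC50 and Emax.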

A further experiment concerns the target DGKalpha (Homo sapiens, UniProt P23743). Nature of the experiment: In vitro DGK inhibition assay (ADP-Glo, liposomes), DGKalpha. Details: hDGKalpha(1-735)-N-His; His (N); made in house; host or cells: Sf21 insect cells (baculovirus). The settings on record: 4 nM DGK α, 25 μM ATP, 125 uM DLG in liposomes, 1 hour reaction. In kind it is biochemical. The gist of the method: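 Full-length human DGKα (4 nM) or DGKζ (2 nM) from Sf21 cells, with DLG substrate at 125 uM in PS/PC liposomes and ATP at 25 μM (α) or 50 μM (ζ); 1 h reaction. ADP formed read by ADP-Glo luminescence; compounds 11-point, 1:3 dilutions from 10 mM, 2% DMSO final.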
On the technique in general: ADP-Glo first removes unused ATP, then detects ADP through luciferase.

Where [1] appears, read: IL2 after 24 hours, 20 μM reference compound A1 = 100%.

Sequence of DGKalpha (P23743 whole entry): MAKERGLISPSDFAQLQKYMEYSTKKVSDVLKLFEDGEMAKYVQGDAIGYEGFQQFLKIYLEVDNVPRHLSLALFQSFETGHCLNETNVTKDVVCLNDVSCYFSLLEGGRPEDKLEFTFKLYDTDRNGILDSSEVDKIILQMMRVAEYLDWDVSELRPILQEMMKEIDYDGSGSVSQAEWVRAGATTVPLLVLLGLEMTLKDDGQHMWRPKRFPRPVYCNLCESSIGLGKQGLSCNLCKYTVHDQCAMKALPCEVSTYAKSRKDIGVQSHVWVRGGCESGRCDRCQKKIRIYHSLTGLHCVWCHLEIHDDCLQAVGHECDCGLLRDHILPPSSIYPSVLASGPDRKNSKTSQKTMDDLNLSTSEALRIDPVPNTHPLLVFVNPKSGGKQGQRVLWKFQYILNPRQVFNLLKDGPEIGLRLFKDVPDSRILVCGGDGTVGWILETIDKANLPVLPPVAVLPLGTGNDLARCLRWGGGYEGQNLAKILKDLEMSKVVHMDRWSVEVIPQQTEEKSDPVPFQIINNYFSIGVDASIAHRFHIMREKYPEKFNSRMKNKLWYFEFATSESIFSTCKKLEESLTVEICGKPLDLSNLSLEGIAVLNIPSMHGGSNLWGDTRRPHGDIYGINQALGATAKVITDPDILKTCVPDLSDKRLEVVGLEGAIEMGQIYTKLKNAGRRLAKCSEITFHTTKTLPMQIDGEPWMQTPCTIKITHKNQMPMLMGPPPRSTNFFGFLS

As to `CC1(c2nnc(-c3ccc4c(c3)N(Cc3ccc(Oc5ccccc5)cc3)C(=O)[C@@H](N)CS4(=O)=O)o2)CCCS1(=O)=O` (stereo partly drawn) [Example 58, (3R)-3-amino-7-[5-(2-methyl-1,1-dioxo-thiolan-2-yl)-1,3,4-oxadiazol-2-yl]-1,1-dioxo-5-[(4-phenoxyphenyl)methyl]-2,3-dihydro-1λ6,5-benzothiazepin-4-one], the Emax in the experiment with primary human T-cells (setting [1]) was found to be 136%. In addition, the concentration for a half-maximal effect (EC50) in the experiment with primary human T-cells came out at 2930 nM. The same compound had an IC50 against DGKalpha of 3380 nM.
Regarding `CC(C)(c1nnc(-c2ccc3c(c2)N(Cc2ccc(OC4CCCC4)cc2)C(=O)[C@@H](N)CS3(=O)=O)o1)S(C)(=O)=O` [Example 16, (3R)-3-amino-5-[[4-(cyclopentoxy)phenyl]methyl]-7-[5-(1-methyl-1-methylsulfonyl-ethyl)-1,3,4-oxadiazol-2-yl]-1,1-dioxo-2,3-dihydro-1λ6,5-benzothiazepin-4-one], the Emax in the experiment with primary human T-cells (setting [1]) stood at 61%. For the same compound, the half-maximal effective concentration (EC50) in the experiment on primary human T-cells stood at 6220 nM. At DGKalpha, this compound registered an IC50 of 1510 nM.
As to `CCC(CC)Oc1ccc(CN2C(=O)[C@@H](N)CS(=O)(=O)c3ccc(-c4nnc(C(C)(C)S(C)(=O)=O)o4)cc32)cc1` [Example 19, (3R)-3-amino-5-[[4-(1-ethylpropoxy)phenyl]methyl]-7-[5-(1-methyl-1-methylsulfonyl-ethyl)-1,3,4-oxadiazol-2-yl]-1,1-dioxo-2,3-dihydro-1λ6,5-benzothiazepin-4-one], in the experiment on primary human T-cells (setting [1]), the Emax is 54%. The EC50 in the experiment on primary human T-cells turned out to be 8700 nM. This compound had a half-maximal inhibitory concentration (IC50) against DGKalpha of 1810 nM.
`CC(C)(c1nc(-c2cc3c(cc2F)[S+]([O-])C[C@H](N)C(=O)N3Cc2ccc(Oc3ccccc3)cc2)no1)S(C)(=O)=O` (stereo partly drawn) [Example 51, (3R)-3-amino-8-fluoro-7-[5-(1-methyl-1-methylsulfonyl-ethyl)-1,2,4-oxadiazol-3-yl]-1-oxo-5-[(4-phenoxyphenyl)methyl]-2,3-dihydro-1λ4,5-benzothiazepin-4-one]: the “Emax IL2 (% activation)” value in the experiment on primary human T-cells (setting [1]) came out at 101%. In addition, in the experiment with primary human T-cells, the EC50 came out at 897 nM. The compound also came in with an IC50 against DGKalpha of 2290 nM.
As for `COc1cc(Cl)cc(Oc2ccc(CN3C(=O)[C@@H](N)CS(=O)(=O)c4ccc(-c5nnc(C(C)(C)S(C)(=O)=O)o5)cc43)cc2)c1` [Example 41, (3R)-3-amino-5-[[4-(3-chloro-5-methoxy-phenoxy)phenyl]methyl]-7-[5-(1-methyl-1-methylsulfonyl-ethyl)-1,3,4-oxadiazol-2-yl]-1,1-dioxo-2,3-dihydro-1λ6,5-benzothiazepin-4-one], the maximal effect (Emax) in the experiment on primary human T-cells (setting [1]) came out at 115%. In addition, the EC50 with primary human T-cells was found to be 1460 nM. The IC50 on DGKalpha amounted to 41000 nM.
`CC(C)(c1nnc(-c2ccc3c(c2)N(Cc2ccc(-c4noc(C(F)(F)F)n4)cc2)C(=O)[C@@H](N)CS3(=O)=O)o1)S(C)(=O)=O` [Example 17, (3R)-3-amino-7-[5-(1-methyl-1-methylsulfonyl-ethyl)-1,3,4-oxadiazol-2-yl]-1,1-dioxo-5-[[4-[5-(trifluoromethyl)-1,2,4-oxadiazol-3-yl]phenyl]methyl]-2,3-dihydro-1λ6,5-benzothiazepin-4-one]: the Emax in the experiment with primary human T-cells (setting [1]) amounted to 153%. Moreover, the EC50 in the experiment on primary human T-cells was 3420 nM. 3350 nM corresponded to half-maximal inhibition against DGKalpha (IC50).
As for `CS(=O)(=O)C1(c2nnc(-c3ccc4c(c3)N(Cc3ccc(Oc5ccccc5)cc3)C(=O)[C@@H](N)CS4(=O)=O)o2)CCC1` [Example 68, (3R)-3-amino-7-[5-(1-methylsulfonylcyclobutyl)-1,3,4-oxadiazol-2-yl]-1,1-dioxo-5-[(4-phenoxyphenyl)methyl]-2,3-dihydro-1λ6,5-benzothiazepin-4-one], the Emax with primary human T-cells (setting [1]) came out at 41%. The EC50 in the experiment with primary human T-cells was found to be 2200 nM. On DGKalpha, this compound gave an IC50 greater than 62500 nM.
With `CC(C)(c1nnc(-c2cc3c(cc2F)S(=O)(=O)C[C@H](N)C(=O)N3Cc2ccc(OCC(F)(F)F)cc2)o1)S(C)(=O)=O` [Example 24, (3R)-3-amino-8-fluoro-7-[5-(1-methyl-1-methylsulfonyl-ethyl)-1,3,4-oxadiazol-2-yl]-1,1-dioxo-5-[[4-(2,2,2-trifluoroethoxy)phenyl]methyl]-2,3-dihydro-1λ6,5-benzothiazepin-4-one], in the experiment with primary human T-cells (setting [1]), the maximal effect (Emax) stood at 24%. Further, the EC50 with primary human T-cells was found to be 1060 nM. The compound also registered an IC50 on DGKalpha of 431 nM.
For the compound `CC(C)(c1nnc(-c2ccc3c(c2)N(Cc2ccc(-c4ccc(C(F)(F)F)cc4)nc2)C(=O)[C@@H](N)CS3(=O)=O)o1)S(C)(=O)=O` [Example 57, (3R)-3-amino-7-[5-(1-methyl-1-methylsulfonyl-ethyl)-1,3,4-oxadiazol-2-yl]-1,1-dioxo-5-[[6-[4-(trifluoromethyl)phenyl]-3-pyridyl]methyl]-2,3-dihydro-1λ6,5-benzothiazepin-4-one], in the experiment on primary human T-cells (setting [1]), the Emax was 53%. For the same compound, the EC50 with primary human T-cells is 9140 nM. This compound showed an IC50 at DGKalpha of 27200 nM.
Taken in the same sequence, the figures for `CS(=O)(=O)C1(c2nnc(-c3cc4c(cc3F)S(=O)(=O)C[C@H](N)C(=O)N4Cc3ccc(Cl)cc3)o2)CC1` [Example 1, (3R)-3-amino-5-[(4-chlorophenyl)methyl]-8-fluoro-7-[5-(1-methylsulfonylcyclopropyl)-1,3,4-oxadiazol-2-yl]-1,1-dioxo-2,3-dihydro-1λ6,5-benzothiazepin-4-one] were 55%, 1010 nM and 2340 nM.
`CC(C)(c1nc(-c2cc3c(cc2F)S(=O)(=O)C[C@H](N)C(=O)N3Cc2ccc(-c3noc(C(F)(F)F)n3)cc2)no1)S(C)(=O)=O` [Example 46, (3R)-3-amino-8-fluoro-7-[5-(1-methyl-1-methylsulfonyl-ethyl)-1,2,4-oxadiazol-3-yl]-1,1-dioxo-5-[[4-[5-(trifluoromethyl)-1,2,4-oxadiazol-3-yl]phenyl]methyl]-2,3-dihydro-1λ6,5-benzothiazepin-4-one]: in the experiment with primary human T-cells (setting [1]), the Emax amounted to 317%. For the same compound, the EC50 with primary human T-cells came out at 491 nM. On DGKalpha, the IC50 was determined as 1100 nM.
Taken in the same sequence, the figures for `CC(C)(c1nnc(-c2ccc3c(c2)N(Cc2ccc(Oc4cccc(OC(F)F)c4)cc2)C(=O)[C@@H](N)CS3(=O)=O)o1)S(C)(=O)=O` [Example 47, (3R)-3-amino-5-[[4-[3-(difluoromethoxy)phenoxy]phenyl]methyl]-7-[5-(1-methyl-1-methylsulfonyl-ethyl)-1,3,4-oxadiazol-2-yl]-1,1-dioxo-2,3-dihydro-1λ6,5-benzothiazepin-4-one] were 135%, 1370 nM and 1100 nM.
Taken in the same sequence, the figures for `COc1ccc(-c2ccc(CN3C(=O)[C@@H](N)CS(=O)(=O)c4ccc(-c5noc(C(C)(C)S(C)(=O)=O)n5)cc43)cc2)cc1` [Example 63, (3R)-3-amino-5-[[4-(4-methoxyphenyl)phenyl]methyl]-7-[5-(1-methyl-1-methylsulfonyl-ethyl)-1,2,4-oxadiazol-3-yl]-1,1-dioxo-2,3-dihydro-1λ6,5-benzothiazepin-4-one] were 57%, 381 nM and 58900 nM.
For the compound `CC(C)(c1nnc(-c2ccc3c(c2)N(Cc2ccc(Oc4cccc(Cl)c4)cc2)C(=O)[C@@H](N)CS3(=O)=O)o1)S(C)(=O)=O` [Example 34, (3R)-3-amino-5-[[4-(3-chlorophenoxy)phenyl]methyl]-7-[5-(1-methyl-1-methylsulfonyl-ethyl)-1,3,4-oxadiazol-2-yl]-1,1-dioxo-2,3-dihydro-1λ6,5-benzothiazepin-4-one], in the experiment on primary human T-cells (setting [1]), the Emax was determined as 89%. The EC50 with primary human T-cells turned out to be 1000 nM. This compound also had an IC50 on DGKalpha of 20300 nM.

For orientation: Emax means the maximal effect, on the per cent scale that the assay sets. One may read the EC50 as the midpoint of the concentration-response curve. By IC50 is commonly meant the concentration needed to halve the response being measured. Higher therefore signals lower potency.
